Where two headings read alike, the source gives them in different places.
Test system: mouse peritoneal macrophages
Assay: In vitro experiment using mouse peritoneal macrophages: suppression of foaming, cholesterol ester (CE) yield
Format: cell-based
Conditions: for inhibitory effect on macrophages (rate of cholesterol ester synthesis), in words: mouse peritoneal macrophages, 5 μM
[1] = test compound 5 μM with liposomes, 16 hours, cholesterol ester yield relative to control without test compound = 100%, smaller value = more potent suppression

Row | Compound | CE yield (%) | CE yield (%) [1] [%] | inhibitory effect on macrophages (rate of cholesterol ester synthesis), in words
1 | 1-(5-(benzimidazoyl-2-thio)pentyl)piperidine [Compound 1] | 22 |  | 
2 | 1-(5-benzimidazolyl-2-thio)pentyl-1,2,3,4-tetrahydro-quinoline [Compound 34] | 21 |  | 
3 | 2-(5-(4-morpholino))-5-chlorobenzimidazole [Compound 20] |  | 25 | 
4 | 2-(5-(4-morpholino))-5-methoxybenzimidazole [Compound 19] |  | 24 | 
5 | 2-(5-(4-morpholino))-5-methylbenzimidazole [Compound 9] |  | 21 | 
6 | 2-(6-(1-(4-cyano-4-phenyl)piperidino)heptyl)-1H-benzimidazole [Compound 57] | 22 |  | 
7 | 2-(6-(1-(4-hydroxy-4-phenyl)piperidino)heptyl)-1H-benzimidazole [Compound 58] | 20 |  | 
8 | 4-(5-(benzimidazolyl-2-thio)pentyl)morpholine [Compound 2] |  | 18 | 
9 | CCCn1c(SCCCCCN2CCOCC2)nc2ccccc21 [Compound 6, 4-(5-(1-propylbenzimidazolyl-2-thio)pentyl)morpholine] |  | 27 | 
10 | CCC(=O)n1c(SCCCCCN2CCOCC2)nc2ccccc21 [Compound 7, 4-(5-(1-propionylbenzimidazolyl-2-thio)pentyl)morpholine] |  | 22 | 
11 | O=C(CCCCSc1nc2ccccc2[nH]1)N1CCCc2ccccc21 [Compound 33, 1-(5-(4-benzimidazolyl-2-thio)valeryl)-1,2,3,4-tetrahydro-quinoline] |  | 18 | 
12 | c1ccc2[nH]c(SCCOCCN3CCOCC3)nc2c1 [Compound 50, 4-(2-(2-benzimidazoyl-2-thio)ethoxy)ethylmorpholine] |  | 4.6 | 
13 | N#CC1(c2ccccc2)CCN(CCCCCOc2nc3ccccc3[nH]2)CC1 [Compound 55, 1-(5-(benzimidazoyl-2-oxy)pentyl)-4-cyano-4-phenyl-piperidine] | 21 |  | 
14 | CC(C)Oc1cccc(OC(C)C)c1NC(=O)CN1CCN(CCCSc2nc3ccccc3[nH]2)CC1 [Ref. 1, reference compound] |  | 95 | almost no inhibitory effect
15 | CC(C)c1cc(C(C)C)c(NC(=O)CN2CCN(CCSc3nc4ccccc4[nH]3)CC2)c(C(C)C)c1 [Ref. 2, reference compound] |  | 98 | almost no inhibitory effect
16 | CCCCCCN(CCCCCSc1nc2ccccc2[nH]1)C(=O)Nc1ccc(F)cc1F [Ref. 3, reference compound] |  | 78 | almost no inhibitory effect
17 | O=C(CCN1CCCCC1)CSc1nc2ccccc2[nH]1 [Ref. 4, reference compound] |  | 89 | completely inactive
18 | COc1ccc2[nH]c(SCCN3CCNCC3)nc2c1 [Ref. 5, reference compound] |  | 102 | completely inactive
